{"source": "PubChem BioAssay AID1259409", "about": "(Chemical Carcinogenesis Research Information System (CCRIS), 2018)", "origin": "cited, not measured here", "tested_on": "rodent chemically induced tumor inhibition, incidence and multiplicity", "assay": "CCRIS tumor inhibitor studies"}
{"molecule": "CC1=C(/C=C/C(C)=C/C=C/C(C)=C/C(=O)Nc2ccc(O)cc2)C(C)(C)CCC1", "values": [{"measurement": "tumour outcome (control, treated, inhibition, significance)", "setting": "Carcinogen: 7,12-DIMETHYLBENZ[A]ANTHRACENE, 57-97-6, Dose [Inhibitor]: 1.5 MMOL/KG CHOW DIET IN 25 ML OF THE VEHICLE (ETHANOL/TRICAPRYLIN 1:4 (VOL/VOL) PLUS 6% (WT/VOL) ALPHA-TOCOPHEROL) BEGI, Route [Inhibitor]: ORAL, Species: RAT, Strain/Sex: SPRAGUE-DAWLEY/FEMALE, Target Tissue: Type of Lesion: MAMMARY GLAND: TUMOR, Dose [Carcinogen]: 75 MG/KG BW IN 1.0 ML SESAME OIL ONCE, Promoter: NONE USED", "value": "70%, 30%, 57%, not significant"}, {"measurement": "tumour outcome (control, treated, inhibition, significance)", "setting": "Carcinogen: 7,12-DIMETHYLBENZ[A]ANTHRACENE, 57-97-6, Dose [Inhibitor]: 2 MMOL/KG DIET DAILY FROM 10 D THROUGH 12 WK AFTER CARCINOGEN DOSE FOLLOWED BY 16 WK OBSERVATION PERIOD (STUDY DURATION:, Route [Inhibitor]: ORAL, Species: RAT, Strain/Sex: SPRAGUE-DAWLEY/FEMALE, Target Tissue: Type of Lesion: MAMMARY GLAND: TUMOR, Dose [Carcinogen]: 10 MG/RAT ONCE, Promoter: NONE USED", "value": "8/15 (53%), 7/15 (47%), 11%, not significant"}, {"measurement": "tumour outcome (control, treated, inhibition, significance)", "setting": "Carcinogen: 7,12-DIMETHYLBENZ[A]ANTHRACENE, 57-97-6, Dose [Inhibitor]: 2 MMOL/KG DIET DAILY FROM 29 D PRIOR THROUGH 12 WK AFTER CARCINOGEN DOSE FOLLOWED BY 16 WK OBSERVATION PERIOD (STUDY DUR, Route [Inhibitor]: ORAL, Species: RAT, Strain/Sex: SPRAGUE-DAWLEY/FEMALE, Target Tissue: Type of Lesion: MAMMARY GLAND: TUMOR, Dose [Carcinogen]: 10 MG/RAT ONCE, Promoter: NONE USED", "value": "8/15 (53%), 9/15 (60%), -13%, not significant"}, {"measurement": "tumour outcome (control, treated, inhibition, significance)", "setting": "Carcinogen: DIETHYLNITROSAMINE [55-18-5], Dose [Inhibitor]: 280 NM/100 G BW WK FOR 3 WK BETWEEN 4TH AND 25TH WK AFTER CARCINOGEN (STUDY DURATION: 50 WK), Route [Inhibitor]: IP INJECTION, Species: RAT, Strain/Sex: F344/MALE, Target Tissue: Type of Lesion: LIVER: HEPATOCELLULAR CARCINOMA, Dose [Carcinogen]: 150 MG/KG ONCE, Promoter: 2-ACETYLAMINOFLUORENE [53-96-3]", "value": "14/18 (78%), 6/20 (30%), 62%, p= 0.0044"}, {"measurement": "tumour outcome (control, treated, inhibition, significance)", "setting": "Carcinogen: DIETHYLNITROSAMINE, 55-18-5, Dose [Inhibitor]: 0, 98 MG/KG DIET FOR DURATION OF STUDY BEGINNING 1 WK PRIOR TO CARCINOGEN TREATMENT (STUDY DURATION: 25 WK), Route [Inhibitor]: ORAL, Species: HAMSTER, Strain/Sex: SYRIAN/MALE, Target Tissue: Type of Lesion: LUNG: CARCINOMA, Dose [Carcinogen]: 17.8 MG/KG BW 2/WK FOR 20 WK, Promoter: NONE USED", "value": "50%, 45%, 10%, not significant"}, {"measurement": "tumour outcome (control, treated, inhibition, significance)", "setting": "Carcinogen: DIETHYLNITROSAMINE, 55-18-5, Dose [Inhibitor]: 0, 98 MG/KG DIET FOR DURATION OF STUDY BEGINNING 1 WK PRIOR TO CARCINOGEN TREATMENT (STUDY DURATION: 25 WK), Route [Inhibitor]: ORAL, Species: HAMSTER, Strain/Sex: SYRIAN/MALE, Target Tissue: Type of Lesion: TRACHEA: PAPILLOMA, Dose [Carcinogen]: 17.8 MG/KG BW 2/WK FOR 20 WK, Promoter: NONE USED", "value": "95%, 95%, 0%, not significant"}, {"measurement": "tumour outcome (control, treated, inhibition, significance)", "setting": "Carcinogen: DIETHYLNITROSAMINE, 55-18-5, Dose [Inhibitor]: 0, 196 MG/KG DIET FOR DURATION OF STUDY BEGINNING 1 WK PRIOR TO CARCINOGEN TREATMENT (STUDY DURATION: 25 WK), Route [Inhibitor]: ORAL, Species: HAMSTER, Strain/Sex: SYRIAN/MALE, Target Tissue: Type of Lesion: LUNG: CARCINOMA, Dose [Carcinogen]: 17.8 MG/KG BW 2/WK FOR 20 WK, Promoter: NONE USED", "value": "60%, 50%, 17%, not significant"}, {"measurement": "tumour outcome (control, treated, inhibition, significance)", "setting": "Carcinogen: DIETHYLNITROSAMINE, 55-18-5, Dose [Inhibitor]: 0, 196 MG/KG DIET FOR DURATION OF STUDY BEGINNING 1 WK PRIOR TO CARCINOGEN TREATMENT (STUDY DURATION: 25 WK), Route [Inhibitor]: ORAL, Species: HAMSTER, Strain/Sex: SYRIAN/MALE, Target Tissue: Type of Lesion: TRACHEA: PAPILLOMA, Dose [Carcinogen]: 17.8 MG/KG BW 2/WK FOR 20 WK, Promoter: NONE USED", "value": "100%, 100%, 0%, not significant"}, {"measurement": "tumour outcome (control, treated, inhibition, significance)", "setting": "Carcinogen: DIMETHYLBENZ[A]ANTHRACENE, 57-97-6, Dose [Inhibitor]: 0, 782 MG/KG DIET IN VEHICLE 2 MO PRIOR TO CARCINOGEN DOSE AND CONTINUED UNTIL CARCINOGEN ADMINISTRATION (STUDY DURATION, Route [Inhibitor]: ORAL, Species: RAT, Strain/Sex: CD-1/FEMALE, Target Tissue: Type of Lesion: MAMMARY GLAND: ADENOCARCINOMA, Dose [Carcinogen]: 20 MG IN 1 ML SESAME OIL ONCE, Promoter: NONE USED", "value": "63%, 71%, -13%, not calculated"}, {"measurement": "tumour outcome (control, treated, inhibition, significance)", "setting": "Carcinogen: DIMETHYLBENZ[A]ANTHRACENE, 57-97-6, Dose [Inhibitor]: 0, 782 MG/KG DIET IN VEHICLE 2 MO PRIOR TO CARCINOGEN DOSE AND CONTINUED UNTIL CARCINOGEN ADMINISTRATION (STUDY DURATION, Route [Inhibitor]: ORAL, Species: RAT, Strain/Sex: CD-1/FEMALE, Target Tissue: Type of Lesion: MAMMARY GLAND: ADENOMA, Dose [Carcinogen]: 20 MG IN 1 ML SESAME OIL ONCE, Promoter: NONE USED", "value": "17%, 43%), -153%, not calculated"}, {"measurement": "tumour outcome (control, treated, inhibition, significance)", "setting": "Carcinogen: METHYLNITROSOUREA, 684-93-5, Dose [Inhibitor]: 0, 782 MG/KG DIET IN VEHICLE 2 MO PRIOR TO CARCINOGEN DOSE AND CONTINUED FOR STUDY DURATION (STUDY DURATION: 8 MO), Route [Inhibitor]: ORAL, Species: RAT, Strain/Sex: CD-1/FEMALE, Target Tissue: Type of Lesion: MAMMARY GLAND: ADENOCARCINOMA, Dose [Carcinogen]: 50 MG/KG BW ONCE, Promoter: NONE USED", "value": "57%, 23%, 60%, p<0.05"}, {"measurement": "tumour outcome (control, treated, inhibition, significance)", "setting": "Carcinogen: METHYLNITROSOUREA, 684-93-5, Dose [Inhibitor]: 0, 782 MG/KG DIET IN VEHICLE 2 MO PRIOR TO CARCINOGEN DOSE AND CONTINUED FOR STUDY DURATION (STUDY DURATION: 8 MO), Route [Inhibitor]: ORAL, Species: RAT, Strain/Sex: CD-1/FEMALE, Target Tissue: Type of Lesion: MAMMARY GLAND: BENIGN TUMOR, Dose [Carcinogen]: 50 MG/KG BW ONCE, Promoter: NONE USED", "value": "10%, 3%, 70%, not calculated"}, {"measurement": "tumour outcome (control, treated, inhibition, significance)", "setting": "Carcinogen: METHYLNITROSOUREA, 684-93-5, Dose [Inhibitor]: 0, 782 MG/KG DIET IN VEHICLE 2 MO PRIOR TO CARCINOGEN DOSE AND CONTINUED UNTIL CARCINOGEN ADMINISTRATION (STUDY DURATION, Route [Inhibitor]: ORAL, Species: RAT, Strain/Sex: CD-1/FEMALE, Target Tissue: Type of Lesion: MAMMARY GLAND: ADENOCARCINOMA, Dose [Carcinogen]: 50 MG/KG BW ONCE, Promoter: NONE USED", "value": "57%, 66%, -16%, not calculated"}]}
